Results on 19 compounds are retold here after article PMC11642044 (International Journal of Molecular Sciences, 2024).

Where no end group is shown, it is not given here.

The test system of assay [1] is B2R-mediated LIF secretion in U87-MG cells. The assay can be described thus: Inhibition of bradykinin-induced LIF production (ELISA), U87-MG. It counts as cell-based, human. The conditions noted are these: 10 μM inhibitor, 30 min pre-treatment, bradykinin 1 µM, 24 h. On the procedure: Conditioned media were analyzed for the presence of multiple cytokines by using the cytokine multiplex assay kits (Merck Millipore, MA, USA) as previously described. Briefly, a bead mixture with various capture antibodies (50 μL) was added to a 96-well microtiter plate, followed by 50 μL of cytokine standard mix or test sample and then 25 μL of a biotinylated detection antibody mixture. The mixtures were incubated for 30 min at 25 °C with gentle shaking. Unbound antibodies were removed by three gentle washes. Finally, 50 μL of streptavidin–PE solution was added and incubated for another 30 min with gentle shaking. The detection beads were then washed again and resuspended in 120 μL of reading buffer. The Bio-Plex™ 200 system (Bio-Rad Laboratories, Hercules, CA, USA) with the Bio-Plex manager software (version 5.0) was utilized for signal detection and data analysis. Curve fitting was applied to each standard curve according to the manufacturer’s manual and sample concentrations were interpolated from the standard curves. Individual detections for LIF and IL-6 were performed using the corresponding ELISA kits from Abcam (Cambridge, UK) according to the manufacturer’s instructions.
The resulting Ca^2+ signal profiles were monitored by FLIPR for 3 min.
For orientation: In an ELISA, binding on a coated surface is turned into a signal by an enzyme label.

The next assay deals with U87-MG cells. The assay can be described thus: Intracellular Ca2+ mobilization by Gq-coupled receptor agonists (FLIPR, Fluo-4), U87-MG. It counts as cell-based, human. To be noted: U87-MG, FLIPR, Fluo-4, 3 min, n = 3. Here is the method: (§1) Cells were seeded in 96-well plates (clear bottom and black wall) at 2.5 × 10^4 cells per well on the day before assay. The cells (~80–100% confluence) were then washed with Hank’s balanced salt solution (HBSS) and aspirated, followed by addition of 100 μL of FLIPR labeling dye (containing Fluo-4 and probenecid in HBSS) to each well before incubation at 37 °C for 1 h. Finally, the 96-well plate containing the labeled cells was transferred to the FLIPR (Molecular Devices, San Jose, CA, USA), and 50 μL of HBSS (with or without agonists) was added to each well. The fluorescent signals that reflect the intracellular Ca^2+ transients were monitored by an excitation wavelength of 488 nm, and detection was undertaken with an emission wavelength from 510 to 570 nm for 3 min upon the drug treatments, as described previously.

The test system of a further assay is 1321-N1 cells. The experiment in a line: Intracellular Ca2+ mobilization by Gq-coupled receptor agonists (FLIPR, Fluo-4), 1321-N1. It counts as cell-based, human. The conditions noted are these: 1321-N1, FLIPR, Fluo-4, 3 min, n = 3. On the procedure:
as §1
Background: Calcium assays in cells follow changes in intracellular calcium, usually with a dye or a luminescent sensor.

The subject of the next assay is primary astrocytes. The experiment in a line: Intracellular Ca2+ mobilization by Gq-coupled receptor agonists (FLIPR, Fluo-4), primary cortical astrocytes. It is filed as cell-based, mouse. The conditions noted are these: n = 4. Here is the method: HEK293, U87-MG, 1321N1, SK-N-SH, and SK-N-MC cells were cultured in MEM supplemented with 10% (vol/vol) fetal bovine serum (FBS), 50 U/mL penicillin, and 50 μg/mL streptomycin. Primary astrocyte cultures were prepared from the cerebral cortexes of neonatal mice (P2). The cerebral hemispheres were isolated and transferred to ice-cold Hank’s buffer, and the meninges were carefully removed. Tissues were then minced into approximately 1 mm pieces, triturated, filtered through a 60 µm nylon screen, and collected by centrifugation at approximately 3000× g for 5 min. The cell pellets were dispersed with a pipette and resuspended in a medium containing 10% (vol/vol) FBS in low-glucose Dulbecco’s modified Eagle’s medium. After trituration, the cells were filtered through a 10 µm screen and then plated into 6-well plates at a density of 3 × 10^5 cells/mL and cultured for about 10 days. The medium was replaced twice per week. Dibutyryl cyclic adenosine monophosphate (DBcAMP; 0.15 mM, Sigma, St Louis, MO, USA) was added to induce differentiation when the cells were grown to 95% confluence. Primary mouse cortical neuronal cultures were obtained from E16 ICR mouse embryos. Briefly, cerebral cortices were removed from mouse embryos and mechanically dissociated in PBS with glucose (18 mM). Neurons were then seeded onto poly-L-lysine (1 mg/mL)-coated 96-well plates at 5 × 10^4 cells/well in a B27 Plus Neuronal culture system (Thermo Fisher Scientific), supplemented with 2 mM glutamine, 5 μM mercaptoethanol, 100 U/mL penicillin and 100 μg/mL streptomycin. The cultured neurons were maintained in a humidified incubator at 37 °C with 5% CO2 for 7 days prior to use.
as §1

In assay [2] the test system is STAT3 in primary mouse astrocytes. The experiment in a line: STAT3 phosphorylation by direct application of cytokine, primary astrocytes. It is filed as cell-based. To be noted: 0–100 ng/mL, 15 min, n = 3. On the procedure: To determine if the experimental cells were readily responsive to LIF and IL-6, SK-N-MC cells, mouse primary neurons and primary astrocytes (80–100% confluence in 12-well plates) were serum-starved for 6 h, followed by treatment of indicated concentrations (0–100 ng/mL) of LIF and IL-6 for 15 min. The subsequent cell lysates were subjected to SDS-PAGE and Western blot with specific antibodies to detect stimulatory phosphorylated forms and the total amounts of STAT3.
SDS-PAGE and Western blotting were performed as described in our previous studies. In brief, cells in 6-well plates (5 × 10^5 cells/well) were lysed in 500 μL of ice-cold lysis buffer (50 mM Tris-HCl at pH 7.5 containing 100 mM NaCl, 5 mM EDTA, 40 mM NaP2O7, 1% Triton X-100, 1 mM dithiothreitol, 200 μM Na3VO4, 100 μM phenylmethylsulfonyl fluoride, 2 μg/mL leupeptin, 4 μg/mL aprotinin, and 0.7 μg/mL pepstatin) and then gently shaken for 30 min. The amount of protein in each sample was determined by detergent compatible (DC) protein assay according to the supplier’s instruction (Bio-Rad, Hercules, CA, USA). Clarified lysates (30 μg protein per sample) were resolved on 12% SDS-polyacrylamide gels and then transferred to nitrocellulose membranes (Westborough, MA, USA). Resolved proteins were detected by specific primary antibodies and horseradish peroxidase-conjugated secondary antisera. The level of β-actin was determined as an internal control. Immunoblots were visualized by chemiluminescence with the WesternBright ECL reagents from Advansta (San Jose, CA, USA). Chemiluminescence signals were then detected by ChemiDoc imaging systems (Bio-Rad, Hercules, CA, USA) with the subsequent band densities quantified by ImageJ (https://imagej.net/ij/) analysis software (National Institutes of Health, MD, USA). All primary antibodies which specifically recognize B1R, B2R, ERK, p-ERK, p38, p-p38, JNK, p-JNK, STAT3, p-STAT3, and β-actin were applied at 1:1000 dilution for Western blotting.

For another assay, the system named is STAT3 in SK-N-MC cells. The experiment in a line: STAT3 Tyr705 phosphorylation in SK-N-MC by conditioned media from agonist-treated U87-MG. It is filed as cell-based, human. The conditions noted are these: U87-MG treated with bombesin 1 μM, bradykinin 1 μM or histamine 10 μM, 24 h; media on SK-N-MC 15 min. On the procedure:
These conditioned media were either immediately applied to SK-N-SH/SK-N-MC cells (80–100% confluence) in 6-well plates for 15 min, or subjected to heat treatment on a 96 °C heat block for 5 min, and then cooled to 37 °C before they were applied to the SK-N-SH/SK-N-MC cells for 15 min. […] For the SK-N-MC-derived conditioned media, SK-N-MC cells (80–100% confluence) in a 10 cm culture dish were serum-starved in 10 mL of MEM (without FBS), with 1 mL of the resulting conditioned medium being collected at indicated time points (15 min, 1 h, 3 h, 6 h). Simultaneously, U87-MG cells (80–100% confluence) in 12-well plates were serum-starved in MEM for 6 h, followed by pretreatment of […] (5 μM, 15 min), and then challenged with the SK-N-MC-derived conditioned media (mentioned above) for 10 min before cell lysis. […]
SDS-PAGE and Western blotting were performed as described in our previous studies. […] The amount of protein in each sample was determined by detergent compatible (DC) protein assay according to the supplier’s instruction (Bio-Rad, Hercules, CA, USA). […] Resolved proteins were detected by specific primary antibodies and horseradish peroxidase-conjugated secondary antisera. The level of β-actin was determined as an internal control.

Consider `COc1cccc(-c2cc(=O)c3ccccc3o2)c1N` [PD98059], for which the “inhibition of bradykinin-induced LIF secretion by protein kinase inhibitors” value (shortened to “inhibition”) in assay [1] is “found to require”.

For the compound `C[S+]([O-])c1ccc(-c2nc(-c3ccncc3)c(-c3ccc(F)cc3)[nH]2)cc1` (stereo not drawn) [SB203580], in assay [1], the “inhibition” value is “found to require”.

In the case of neurotensin, the “intracellular Ca2+ response” value with U87-MG cells (1 μM agonist) and in the assay on 1321-N1 cells (1 μM agonist) was “could not trigger the activity” in each case.

Take `Oc1c2ccccc2c2c3c(cccc13)N=N2` [SP600125]: the “inhibition” value in assay [1] is “partially inhibited bradykinin-induced LIF secretion”.

As for `N[C@@H](CCC(=O)O)C(=O)O` [glutamate], the “intracellular Ca2+ mobilization” value in the assay on primary astrocytes (1 μM agonist) is listed as “significantly stimulated Ca^2+ mobilization”.

Take `Nc1ncnc2c1ncn2[C@@H]1O[C@H](COP(=O)(O)OP(=O)(O)OP(=O)(O)O)[C@@H](O)[C@H]1O` [ATP]: the figures for the “intracellular Ca2+ response” value in the assay on U87-MG cells (1 μM agonist) and with 1321-N1 cells (1 μM agonist) were “effective in U87-MG cells” and “did not respond to ATP for triggering Ca^2+ transients”, respectively. Moreover, in the assay with primary astrocytes (1 μM agonist), the “intracellular Ca2+ mobilization” value is “significantly stimulated Ca^2+ mobilization”.

With `Cn1c2ccccc2c2c3c(c4c5ccccc5n(CCC#N)c4c21)CNC3=O` [Go6976], the “inhibition” value in assay [1] was “Partial inhibition of LIF secretion”.

On to “angiotensin II (DRVYIHPF; Angiotensin-2; UniProt P01019 25-32, looked up)”, for which, in the assay with U87-MG cells (1 μM agonist), the “intracellular Ca2+ response” value was “effective in U87-MG cells”.

Take interleukin-6 [IL-6]: the STAT3 phosphorylation entry in assay [2] is “significant stimulatory phosphorylation of STAT3”.

Consider `CNC[C@H](O)c1cccc(O)c1` [phenylephrine], for which the “intracellular Ca2+ mobilization” value with primary astrocytes (10 μM agonist) is “significantly stimulated Ca^2+ mobilization”.

Turning to oxytocin, in the assay with U87-MG cells (1 μM agonist), the “intracellular Ca2+ response” value is “effective in U87-MG cells”. Also, in the assay with primary astrocytes (1 μM agonist), the “intracellular Ca2+ mobilization” value is on record as “significantly stimulated Ca^2+ mobilization”.

Take `CCCCC[C@H](O)/C=C/[C@H]1[C@H](O)CC(=O)[C@@H]1C/C=C\CCCC(=O)O` [prostaglandin E2]: the “intracellular Ca2+ mobilization” value in the assay on primary astrocytes (1 μM agonist) was “significantly stimulated Ca^2+ mobilization”.

As to bombesin, the “intracellular Ca2+ response” value in the assay with U87-MG cells (1 μM agonist) and in the assay on 1321-N1 cells (1 μM agonist) was “significantly stimulated intracellular Ca^2+ responses” each time. The “intracellular Ca2+ mobilization” value with primary astrocytes (1 μM agonist) is “significantly stimulated Ca^2+ mobilization”. Further, the “STAT3 Tyr705 phosphorylation by conditioned media” value in the assay on STAT3 in SK-N-MC cells is recorded as “sometimes failed to induce STAT3 phosphorylation”.

Take endothelin: the “intracellular Ca2+ response” value in the assay on 1321-N1 cells (100 nM agonist) is “elicited Ca^2+ responses in 1321-N1 cells”. For the same compound, the “intracellular Ca2+ mobilization” value with primary astrocytes (100 nM agonist) was “significantly stimulated Ca^2+ mobilization”.

`CN(C)S(=O)(=O)c1ccc2c(c1)/C(=C/c1cc3c([nH]1)CCCC3)C(=O)N2` [SU6656]: in assay [1], the “inhibition” value is “found to require”.

Turning to `CCCCCCCCCCCCC/C=C/[C@@H](O)[C@@H](N)COP(=O)(O)O` [sphingosine-1-phosphate], the “intracellular Ca2+ response” value in the assay with U87-MG cells (1 μM agonist) and with 1321-N1 cells (1 μM agonist) was “significantly stimulated intracellular Ca^2+ responses” throughout. Also, the “intracellular Ca2+ mobilization” value in the assay on primary astrocytes (1 μM agonist) was “significantly stimulated Ca^2+ mobilization”.

For the compound `NCCc1c[nH]c2ccc(O)cc12` [serotonin], the “intracellular Ca2+ response” value in the assay with U87-MG cells (10 μM agonist) and with 1321-N1 cells (10 μM agonist) was “could not trigger the activity” each time.

For the compound “neuromedin U25 (FRVDEEFQSPFASQSRGYFLFRPRN; ends and bridges not checked; UniProt P48645 142-166, looked up)”, the “intracellular Ca2+ response” value in the assay on U87-MG cells (1 μM agonist) is listed as “effective in U87-MG cells”.

Regarding neurokinin B, the “intracellular Ca2+ mobilization” value in the assay on primary astrocytes (1 μM agonist) is on record as “significantly stimulated Ca^2+ mobilization”.
